Data published in patent US20140323504A1, “Pyrazolo[4,3-c]Pyridine Derivatives As Kinase Inhibitors” (Cellzome Limited, priority 2011, published 2014).

Target: T1, BLK (Homo sapiens, UniProt P51451)
T1 construct: endogenous in cells; host or cells: 1:1 mix of Jurkat and Ramos cell lysates
Experiment: Radiometric protein kinase assay (33PanQinase, ProQinase), BLK
Format: biochemical
Settings: ATP at apparent Km; read-out: BLK enzyme assay IC50
Experimental: A radiometric protein kinase assay (^33PanQinase® Activity Assay; ProQinase GmbH, Freiburg, Germany) was used for measuring the kinase activity of the protein kinases BLK, BTK, ITK and JAK3. All kinase assays were performed in 96-well FlashPlates™ from PerkinElmer (Boston, Mass., USA) in a 50 μl reaction volume. The reaction cocktail was pipetted in four steps in the following order: • 20 μl of assay buffer (standard buffer) • 5 μl of ATP solution (in H2O) • 5 μl of test compound (in 10% DMSO) • 10 μl of substrate/10 μl of enzyme solution (premixed)
The reaction cocktails were incubated at 30° C. for 60 minutes. The reaction was stopped with 50 μl of 2% (v/v) H3PO4, plates were aspirated and washed two times with 200 μl 0.9% (w/v) NaCl. Incorporation of ^33Pi was determined with a microplate scintillation counter (Microbeta, Wallac). All assays were performed with a BeckmanCoulter/SAGIAN™ Core System.

T1 sequence (P51451 whole entry): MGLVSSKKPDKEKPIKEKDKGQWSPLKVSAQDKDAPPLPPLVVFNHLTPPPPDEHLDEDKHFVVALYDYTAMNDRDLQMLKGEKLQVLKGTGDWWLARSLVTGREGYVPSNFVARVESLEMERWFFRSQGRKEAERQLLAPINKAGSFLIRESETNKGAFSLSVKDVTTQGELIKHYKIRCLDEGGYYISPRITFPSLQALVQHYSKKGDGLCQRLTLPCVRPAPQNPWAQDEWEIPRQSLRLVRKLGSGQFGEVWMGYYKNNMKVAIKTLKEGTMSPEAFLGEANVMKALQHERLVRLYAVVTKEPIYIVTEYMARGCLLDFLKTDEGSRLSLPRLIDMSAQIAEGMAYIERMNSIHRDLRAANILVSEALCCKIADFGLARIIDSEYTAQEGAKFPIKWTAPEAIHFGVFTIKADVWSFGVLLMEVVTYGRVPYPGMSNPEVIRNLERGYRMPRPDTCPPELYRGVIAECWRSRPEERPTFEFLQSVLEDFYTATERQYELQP

IC50: 2000 nM
SMILES: C=CC(=O)Nc1cc(Cn2ncc3cnc(Nc4cnn(C)c4)nc32)ccc1F [Example 2, […]]
